In patent US8552220B2, “Therapeutic agent for Alzheimer's disease” (Tokyo Institute of Technology, priority 2008, dated 2013) one finds melting point data, which are given here for 38 compounds.

Molecules are shown by their SMILES.

In the case of `O=C(/C=C/c1cc(O)ccc1[N+](=O)[O-])CC(=O)/C=C/c1cc(O)ccc1[N+](=O)[O-]`, the melting point was in the range of 253 to 262 °C. `CN(C)c1ccc(/C=C/C(=O)CC(=O)/C=C/c2ccc(N(C)C)cc2[N+](=O)[O-])c([N+](=O)[O-])c1` gave a melting point of 245 to 250 °C. Then `O=C(/C=C/c1ccc(O)cc1)CC(=O)/C=C/c1ccc(O)cc1Cl` [CU127, (1E,6E)-1-(2-chloro-4-hydroxyphenyl)-7-(4-hydroxyphenyl)hepta-1,6-diene-3,5-dione], with 131 to 138 °C; and `COc1cc(/C=C/C(=O)CC(=O)/C=C/c2ccc(O)cc2Cl)ccc1O` [CU129, (1E,6E)-1-(2-chloro-4-hydroxyphenyl)-7-(4-hydroxy-3-methoxyphenyl)hepta-1,6-diene-3,5-dione], with 185 to 192 °C; and `COc1ccc(/C=C/C(=O)CC(=O)/C=C/c2ccc(O)cc2Cl)cc1O` [CU130, (1E,6E)-1-(2-chloro-4-hydroxyphenyl)-7-(3-hydroxy-4-methoxyphenyl)hepta-1,6-diene-3,5-dione], with 120 to 130 °C. As to `COc1cc(/C=C/C(=O)CC(=O)/C=C/c2cc(O)ccc2[N+](=O)[O-])ccc1O` [CU132, (1E,6E)-1-(4-hydroxy-3-methoxyphenyl)-7-(5-hydroxy-2-nitrophenyl)hepta-1,6-diene-3,5-dione], the melting point lay within 147 to 152 °C. Compound `COc1ccc(/C=C/C(=O)CC(=O)/C=C/c2cc(O)ccc2[N+](=O)[O-])cc1O` [CU133, (1E,6E)-1-(3-hydroxy-4-methoxyphenyl)-7-(5-hydroxy-2-nitrophenyl)hepta-1,6-diene-3,5-dione] gave a melting point of 107 to 111 °C. `CN(C)c1ccc(/C=C/C(=O)CC(=O)/C=C/c2ccc(O)cc2)c([N+](=O)[O-])c1` [CU194, (1E,6E)-1-(4-dimethylamino-2-nitrophenyl)-7-(4-hydroxyphenyl)hepta-1,6-diene-3,5-dione] gave a melting point of 217 to 222 °C. Take `O=C(/C=C/c1ccc(O)cc1Cl)CC(=O)/C=C/c1ccc(O)cc1Cl` [CU362, (1E,6E)-1,7-bis(2-chloro-4-hydroxyphenyl)hepta-1,6-diene-3,5-dione]: the melting point was in the range of 248 to 254 °C. Compound `CN(C)c1ccc(/C=C/C(=O)CC(=O)/C=C/c2ccc(N(C)C)cc2Cl)c(Cl)c1` [CU412, (1E,6E)-1,7-bis(2-chloro-4-dimethylaminophenyl)hepta-1,6-diene-3,5-dione] registered a melting point of 238 to 241 °C. The value for `CCN(CC)c1ccc(/C=C/C(=O)CC(=O)/C=C/c2ccc(O)cc2)c(OC(=O)c2ccccc2)c1` [CU425, (1E,6E)-1-(2-benzoyloxy-4-diethylaminophenyl)-7-(4-hydroxyphenyl)hepta-1,6-diene-3,5-dione] was 212 to 215 °C. On to `CCN(CC)c1ccc(/C=C/C(=O)CC(=O)/C=C/c2ccc(N(CC)CC)cc2OC(=O)c2ccccc2)c(OC(=O)c2ccccc2)c1` [CU427, (1E,6E)-1,7-bis(2-benzoyloxy-4-diethylaminophenyl)hepta-1,6-diene-3,5-dione], for which the melting point lay in the range of 192 to 196 °C.

As to `O=C(/C=C/c1ccc(O)cc1)CC(=O)/C=C/c1cc(Cl)ccc1[N+](=O)[O-]` [CU465, (1E,6E)-1-(5-chloro-2-nitrophenyl)-7-(4-hydroxyphenyl)hepta-1,6-diene-3,5-dione], the melting point lay within 241 to 250 °C. On to `O=C(/C=C/c1ccc(O)cc1)CC(=O)/C=C/c1cc(Br)ccc1F` [CU466, (1E,6E)-1-(5-bromo-2-fluorophenyl)-7-(4-hydroxyphenyl)hepta-1,6-diene-3,5-dione], for which the melting point lay within 177 to 203 °C.

In turn, `O=C(/C=C/c1ccc(O)cc1)CC(=O)/C=C/c1ccccc1C(F)(F)F` [CU467, (1E,6E)-1-(4-hydroxyphenyl)-7-(2-trifluoromethylphenyl)hepta-1,6-diene-3,5-dione] had a melting point of 181 to 185 °C. Then `O=C(/C=C/c1ccc(O)cc1)CC(=O)/C=C/c1ccc(Br)cc1F` [CU471, (1E,6E)-1-(4-bromo-2-fluorophenyl)-7-(4-hydroxyphenyl)hepta-1,6-diene-3,5-dione], with 223 to 232 °C; and `O=C(/C=C/c1ccc(O)cc1)CC(=O)/C=C/c1ccccc1-c1ccccc1` [CU472, (1E,6E)-1-(biphenyl-2-yl)-7-(4-hydroxyphenyl)hepta-1,6-diene-3,5-dione], with 180 to 188 °C; and `O=C(/C=C/c1ccc(O)cc1)CC(=O)/C=C/c1cc(C(F)(F)F)ccc1F` [CU473, (1E,6E)-1-(2-fluoro-5-trifluoromethylphenyl)-7-(4-hydroxyphenyl)hepta-1,6-diene-3,5-dione], with 168 to 174 °C. Compound `COC(=O)c1ccccc1/C=C/C(=O)CC(=O)/C=C/c1ccc(O)cc1` [CU478, (1E,6E)-1-(4-hydroxyphenyl)-7-[2-(methoxycarbonyl)phenyl]hepta-1,6-diene-3,5-dione] yielded a melting point of 145 to 150 °C. With `CN(C)C(=O)c1ccccc1/C=C/C(=O)CC(=O)/C=C/c1ccc(O)cc1` [CU479, (1E,6E)-1-[2-(dimethylaminocarbonyl)phenyl]-7-(4-hydroxyphenyl)hepta-1,6-diene-3,5-dione], the melting point fell in the range of 210 to 218 °C.

In the case of `CN(C)S(=O)(=O)c1ccccc1/C=C/C(=O)CC(=O)/C=C/c1ccc(O)cc1` [CU480, (1E,6E)-1-[2-(dimethylaminosulfonyl)phenyl]-7-(4-hydroxyphenyl)hepta-1,6-diene-3,5-dione], the melting point was in the range of 86 to 90 °C. The compound `CS(=O)(=O)Oc1ccccc1/C=C/C(=O)CC(=O)/C=C/c1ccc(O)cc1` [CU483, (1E,6E)-1-(4-hydroxyphenyl)-7-[2-(methylsulfonyloxy)phenyl]hepta-1,6-diene-3,5-dione] returned a melting point of 163 to 167 °C.

Compound `O=C(/C=C/c1ccc(O)cc1)CC(=O)/C=C/c1ccccc1Br` [CU486, (1E,6E)-1-(2-bromophenyl)-7-(4-hydroxyphenyl)hepta-1,6-diene-3,5-dione] had a melting point of 155 to 159 °C. Then `O=C(/C=C/c1ccc(O)cc1)CC(=O)/C=C/c1cc(OCc2c(F)cccc2Cl)ccc1[N+](=O)[O-]` [CU492, (1E,6E)-1-[5-(2-chloro-6-fluorobenzyloxy)-2-nitrophenyl]-7-(4-hydroxyphenyl)hepta-1,6-diene-3,5-dione], with 180 to 183 °C. The value for `O=C(/C=C/c1ccc(O)cc1)CC(=O)/C=C/c1cc(OCc2ccc(Cl)cc2Cl)ccc1[N+](=O)[O-]` [CU493, (1E,6E)-1-[5-(2,4-dichlorobenzyloxy)-2-nitrophenyl]-7-(4-hydroxyphenyl)hepta-1,6-diene-3,5-dione] was 157 to 161 °C; that for `CN(C)c1ccc(/C=C/C(=O)CC(=O)CCc2ccc(O)cc2)c([N+](=O)[O-])c1` [CU523, (E)-1-(4-dimethylamino-2-nitrophenyl)-7-(4-hydroxyphenyl)hept-1-ene-3,5-dione] was 136 to 142 °C; that for `O=C(/C=C/c1ccc(O)cc1)CC(=O)/C=C/c1cc(O)ccc1-c1ccccc1` [CU526, (1E,6E)-1-(4-hydroxybiphenyl-2-yl)-7-(4-hydroxyphenyl)hepta-1,6-diene-3,5-dione] was 179 to 186 °C. In turn, `O=C(/C=C/c1ccc(O)cc1)CC(=O)/C=C/c1cc(OCc2ccccc2)ccc1-c1ccccc1` [CU527, (1E,6E)-1-(4-benzyloxybiphenyl-2-yl)-7-(4-hydroxyphenyl)hepta-1,6-diene-3,5-dione] gave a melting point of 172 to 178 °C. `O=C(/C=C/c1ccc(O)cc1)CC(=O)/C=C/c1ccccc1-c1cccc2ccccc12` [CU528, (1E,6E)-1-(4-hydroxyphenyl)-7-[2-(naphthalen-1-yl)phenyl]hepta-1,6-diene-3,5-dione] returned a melting point of 95 to 101 °C.

Turning to `O=C(/C=C/c1ccc(O)cc1)CC(=O)/C=C/c1ccccc1-c1ccc2ccccc2c1` [CU529, (1E,6E)-1-(4-hydroxyphenyl)-7-[2-(naphthalen-2-yl)phenyl]hepta-1,6-diene-3,5-dione], the melting point lay in the range of 105 to 114 °C.

`O=C(/C=C/c1cc(O)ccc1[N+](=O)[O-])CC(=O)CCc1ccc(O)cc1` [CU530, (E)-1-(5-hydroxy-2-nitrophenyl)-7-(4-hydroxyphenyl)hept-1-ene-3,5-dione] came in with a melting point of 62 to 70 °C. The value for `O=C(/C=C/c1ccc(O)cc1)CC(=O)/C=C/c1cc(O)ccc1-c1cccc2ccccc12` [CU538, (1E,6E)-1-[5-hydroxy-2-(naphthalen-1-yl)phenyl]-7-(4-hydroxyphenyl)hepta-1,6-diene-3,5-dione] was 215 to 221 °C. `COc1cc(/C=C/C(=O)CC(=O)/C=C/c2ccc(O)cc2)c(Br)cc1O` [CU539, (1E,6E)-1-(2-bromo-4-hydroxy-5-methoxyphenyl)-7-(4-hydroxyphenyl)hepta-1,6-diene-3,5-dione] displayed a melting point of 237 to 242 °C.

For `O=C(/C=C/c1cc(O)ccc1-c1ccccc1)CC(=O)CCc1ccc(O)cc1` [CU541, (E)-1-(4-hydroxybiphenyl-2-yl)-7-(4-hydroxyphenyl)hept-1-ene-3,5-dione], the melting point was in the range of 148 to 158 °C. Turning to `O=C(/C=C/c1cc(O)ccc1-c1cccc2ccccc12)CC(=O)CCc1ccc(O)cc1` [CU542, (E)-1-[5-hydroxy-2-(naphthalen-1-yl)phenyl]-7-(4-hydroxyphenyl)hept-1-ene-3,5-dione], the melting point was in the range of 138 to 142 °C. Then `COc1cc(Br)c(/C=C/C(=O)CC(=O)/C=C/c2ccc(O)cc2)cc1O` [CU543, (1E,6E)-1-(2-bromo-5-hydroxy-4-methoxyphenyl)-7-(4-hydroxyphenyl)hepta-1,6-diene-3,5-dione], with 224 to 229 °C; and `O=C(/C=C/c1ccc(O)cc1)CC(=O)/C=C/c1cc(O)c(Br)cc1Br` [CU544, (1E,6E)-1-(2,4-dibromo-5-hydroxyphenyl)-7-(4-hydroxyphenyl)hepta-1,6-diene-3,5-dione], with 255 to 259 °C. For the compound `O=C(/C=C/c1cc(O)ccc1Br)CC(=O)CCc1ccc(O)cc1` [CU549, (E)-1-(2-bromo-5-hydroxyphenyl)-7-(4-hydroxyphenyl)hept-1-ene-3,5-dione], the melting point is 161 to 165 °C.

The melting point is the temperature of the solid-liquid transition.
